Reference: PMC5635026, “Homo-PROTACs: bivalent small-molecule dimerizers of the VHL E3 ubiquitin ligase to induce self-degradation” (Nature Communications, 2017)

Target: pVHL30 (Homo sapiens, UniProt P40337)
Assay: Isothermal titration calorimetry (ITC) against VCB complex with long VHL isoform (V30CB)
Assay type: binding
Parameters: N-terminally His6-tagged VHL (1–213), ElonginC (17–112) and ElonginB (1–104) were co-expressed; His6 (N, cleaved yes); made in house; host or cells: Escherichia coli BL21(DE3)
Experimental: Protein expression and purification. Human proteins VHL (UniProt accession number: P40337), ElonginC (Q15369), and ElonginB (Q15370) were used for all protein expression. The short-isoform-containing VCB complex (V19CB) was expressed, purified and stored as described previously. For expression of the long-isoform-containing VCB complex (V30CB), N-terminally His6-tagged VHL (1–213), ElonginC (17–112) and ElonginB (1–104) were co-expressed in Escherichia coli BL21(DE3) at 20 °C for 18 h using 0.5 mM isopropyl β-D-1-thiogalactopyranoside (IPTG). E. coli cells were resuspended in binding buffer (50 mM HEPES, pH 8.0, 500 mM NaCl, 10 mM imidazole and 5 mM β-mercaptoethanol), lysed using a pressure cell homogenizer (Stansted Fluid Power), and lysate clarified by centrifugation. The supernatant was loaded onto a HisTrap FF affinity column (GE Healthcare) equilibrated with binding buffer, and bound protein was eluted using an imidazole gradient. The His6 tag was removed using thrombin protease (Sigma), and the untagged complex was dialyzed into binding buffer. V30CB was then loaded onto the HisTrap FF column a second time, allowing impurities to bind as the complex eluted without binding. The flow-through was dialyzed using a low-salt buffer (20 mM HEPES, pH 8.0, 25 mM NaCl and 1 mM DTT) and then loaded onto a Resource Q anion exchange column (GE Healthcare); bound protein was eluted across a linear NaCl gradient. V30CB was then additionally purified by size-exclusion chromatography using a Superdex-75 16/600 column (GE Healthcare) equilibrated with 20 mM HEPES, pH 7.5, 100 mM sodium chloride and 1 mM TCEP. All chromatography purification steps were performed using Äkta FPLC purification systems (GE Healthcare).
Isothermal titration calorimetry (ITC). Titrations were performed on an ITC200 micro-calorimeter (GE Healthcare). […] The final DMSO concentration was 0.15% v/v. VCB protein experiments were carried out in a buffer containing 20 mM Bis-tris propane, 150 mM NaCl, 1 mM TCEP, 0.15% v/v DMSO, pH 7.4. The titrations consisted of 19 injections of 2 µL compounds solution (150 µM, in the syringe) at a rate of 0.5 µl s^−1 at 120 s time intervals into the VCB protein solution (20 µM, in the cell). An initial injection of compound solution (0.4 µL) was made and discarded during data analysis. All experiments were performed at 25 °C, whilst stirring the syringe at 600 rpm. The data were fitted to a single binding site model to obtain the stoichiometry n, the dissociation constant K d and the enthalpy of binding ΔH using the Microcal LLC ITC200 Origin software provided by the manufacturer.

Chain of pVHL30 (P40337 whole entry, canonical isoform): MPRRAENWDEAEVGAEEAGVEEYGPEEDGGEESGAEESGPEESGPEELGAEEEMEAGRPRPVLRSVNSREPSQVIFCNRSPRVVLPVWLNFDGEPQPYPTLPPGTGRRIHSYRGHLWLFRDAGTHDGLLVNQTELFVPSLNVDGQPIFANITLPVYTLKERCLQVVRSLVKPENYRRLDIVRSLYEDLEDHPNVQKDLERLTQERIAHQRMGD
Chain of pVHL30 (Q15369 17-112 partner limits assumed): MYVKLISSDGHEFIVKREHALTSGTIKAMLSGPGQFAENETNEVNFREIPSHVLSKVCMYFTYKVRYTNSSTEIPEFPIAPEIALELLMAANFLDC
Chain of pVHL30 (Q15370 1-104 partner limits assumed): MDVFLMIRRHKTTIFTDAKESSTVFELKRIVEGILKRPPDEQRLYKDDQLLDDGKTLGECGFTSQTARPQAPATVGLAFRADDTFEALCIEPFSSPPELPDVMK

ΔG (25 °C, pVHL30): –10.4 ± 0.1 kcal mol^−1
ΔH (25 °C, pVHL30): –11.3 ± 0.1 kcal mol^−1
Kd (25 °C, pVHL30 (V30CB)): 25 ± 3 nM
n (25 °C, stoichiometry of binding, pVHL30 (V30CB)): 0.866 ± 0.003
α (avidity / cooperativity, pVHL30): 7.5
Compound: Cc1ncsc1-c1ccc(CNC(=O)[C@@H]2C[C@@H](O)CN2C(=O)[C@@H](NC(=O)COCCOCCOCCOCCOCCOCC(=O)N[C@H](C(=O)N2C[C@H](O)C[C@H]2C(=O)NCc2ccc(-c3scnc3C)cc2)C(C)(C)C)C(C)(C)C)cc1 [CM11, N ^1 ,N ^20-bis((S)-1-((2S,4R)-4-hydroxy-2-((4-(4-methylthiazol-5-yl)benzyl)carbamoyl)pyrrolidin-1-yl)-3,3-dimethyl-1-oxobutan-2-yl)-3,6,9,12,15,18-hexaoxaicosanediamide]
